Test results reported in article PMC9857510, “Identification of Immune-Active Peptides in Casein Hydrolysates and Its Transport Mechanism on a Caco-2 Monolayer” (Foods, 2023).
Where two headings read alike, the source gives them in different places. Residues, ends and D or L forms follow the SMILES beside them. No end group written: not given here.

Columns and labels:
[1] = target: T1, Peptide transporter 1 (Pep T1) (Homo sapiens, UniProt P46059); assay: Absorption mechanism: Gly-Pro pre-incubation (carrier transport); assay type: in vitro ADME; settings: 10 mM Gly-Pro, 30 min pre-incubation, 2 h transport, vs blank
T1 construct: endogenous in cells; host or cells: Caco-2
T1 sequence (P46059 1-708): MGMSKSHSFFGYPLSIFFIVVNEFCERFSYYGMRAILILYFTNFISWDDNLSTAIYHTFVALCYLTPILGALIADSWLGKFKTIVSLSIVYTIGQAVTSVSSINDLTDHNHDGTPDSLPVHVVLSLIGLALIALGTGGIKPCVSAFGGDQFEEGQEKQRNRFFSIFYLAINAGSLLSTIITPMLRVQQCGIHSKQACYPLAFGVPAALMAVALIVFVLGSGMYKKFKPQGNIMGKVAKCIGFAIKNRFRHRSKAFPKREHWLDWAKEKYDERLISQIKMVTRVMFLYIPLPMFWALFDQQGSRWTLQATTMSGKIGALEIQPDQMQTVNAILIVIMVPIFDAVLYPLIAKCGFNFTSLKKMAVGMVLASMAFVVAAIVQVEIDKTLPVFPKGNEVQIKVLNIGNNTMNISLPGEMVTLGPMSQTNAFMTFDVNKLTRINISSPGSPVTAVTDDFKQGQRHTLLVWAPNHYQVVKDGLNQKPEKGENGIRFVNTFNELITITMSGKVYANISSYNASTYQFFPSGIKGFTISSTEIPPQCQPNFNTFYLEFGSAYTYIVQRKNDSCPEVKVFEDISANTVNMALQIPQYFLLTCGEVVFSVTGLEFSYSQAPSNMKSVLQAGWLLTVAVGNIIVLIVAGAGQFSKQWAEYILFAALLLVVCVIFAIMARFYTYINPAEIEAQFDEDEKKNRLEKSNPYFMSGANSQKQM
Experimental: (§1) After 0.5 mL of 10 mM Gly-Pro, 0.1 mM sodium deoxycholate and 0.025 mM phenylarsine oxide were added to different wells on the AP side, and the Transwell plates were incubated in a CO2 incubator for 30 min and followed by the removal of these compounds. The peptides were then added to the AP side, and Hank’s Balanced Salt Solution (HBSS) buffer was added to the BL side, and samples were collected after 2 h.

Caco-2 cell monolayer [2] = assay: Absorption mechanism: phenylarsine oxide (endocytosis) and sodium deoxycholate (bypass transport) pre-incubation; assay type: in vitro ADME, human
Experimental: as §1

MRP2 = target: T2, MRP2 (Homo sapiens, UniProt Q92887); assay: Peptide efflux: MK-571 sodium salt pre-incubation; assay type: in vitro ADME; settings: 0.05 mM MK-571 sodium salt, AP-BL, 2 h, vs blank
T2 construct: Multidrug resistance protein (MRP) and P-glycoprotein in Caco-2 cells are energy-dependent efflux transporters; endogenous in cells; host or cells: Caco-2
T2 sequence (Q92887 whole entry): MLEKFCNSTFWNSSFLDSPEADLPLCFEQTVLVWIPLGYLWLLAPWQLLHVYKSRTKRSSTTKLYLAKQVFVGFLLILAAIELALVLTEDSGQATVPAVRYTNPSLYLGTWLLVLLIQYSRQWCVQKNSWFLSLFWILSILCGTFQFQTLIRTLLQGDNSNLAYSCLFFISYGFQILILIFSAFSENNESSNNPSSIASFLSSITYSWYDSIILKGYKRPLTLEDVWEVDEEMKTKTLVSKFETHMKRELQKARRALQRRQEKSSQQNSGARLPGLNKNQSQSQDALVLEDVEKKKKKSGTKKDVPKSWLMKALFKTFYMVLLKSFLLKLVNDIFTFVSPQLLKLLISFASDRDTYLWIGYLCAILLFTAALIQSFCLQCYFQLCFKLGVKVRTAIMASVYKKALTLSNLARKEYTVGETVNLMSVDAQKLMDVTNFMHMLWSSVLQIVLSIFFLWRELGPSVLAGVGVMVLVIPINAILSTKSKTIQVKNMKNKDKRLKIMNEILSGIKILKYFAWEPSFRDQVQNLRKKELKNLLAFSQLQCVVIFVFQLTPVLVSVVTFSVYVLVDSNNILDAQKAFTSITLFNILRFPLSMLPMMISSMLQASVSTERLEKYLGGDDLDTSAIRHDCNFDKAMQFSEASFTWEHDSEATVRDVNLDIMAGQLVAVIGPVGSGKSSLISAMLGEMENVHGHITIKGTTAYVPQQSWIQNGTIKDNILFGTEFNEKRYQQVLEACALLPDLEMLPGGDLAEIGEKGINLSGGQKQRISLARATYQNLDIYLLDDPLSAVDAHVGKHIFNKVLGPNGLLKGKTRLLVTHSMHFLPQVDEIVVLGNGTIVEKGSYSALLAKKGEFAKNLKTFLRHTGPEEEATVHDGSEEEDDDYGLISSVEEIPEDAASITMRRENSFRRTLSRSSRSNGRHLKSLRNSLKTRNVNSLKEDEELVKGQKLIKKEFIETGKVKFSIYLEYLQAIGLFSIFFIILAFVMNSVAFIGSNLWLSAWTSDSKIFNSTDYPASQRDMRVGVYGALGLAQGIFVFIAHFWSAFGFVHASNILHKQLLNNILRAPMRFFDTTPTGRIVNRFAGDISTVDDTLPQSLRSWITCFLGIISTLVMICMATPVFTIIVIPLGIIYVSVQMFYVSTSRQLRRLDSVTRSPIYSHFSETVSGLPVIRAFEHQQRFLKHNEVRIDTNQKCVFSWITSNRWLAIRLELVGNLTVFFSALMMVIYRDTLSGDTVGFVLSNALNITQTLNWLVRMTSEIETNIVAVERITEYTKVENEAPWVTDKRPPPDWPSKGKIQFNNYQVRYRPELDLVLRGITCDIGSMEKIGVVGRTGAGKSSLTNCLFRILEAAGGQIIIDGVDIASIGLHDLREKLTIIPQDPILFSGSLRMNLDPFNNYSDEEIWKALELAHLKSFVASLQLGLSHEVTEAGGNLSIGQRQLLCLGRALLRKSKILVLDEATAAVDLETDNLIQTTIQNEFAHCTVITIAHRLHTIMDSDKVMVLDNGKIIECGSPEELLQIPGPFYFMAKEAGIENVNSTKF
Experimental: (§2) In total, 0.5 mL of 0.05 mM MK-571 sodium salt, 0.1 mM verapamil, and 10 mM sodium azide were added to the AP side hole of the Transwell plate and incubated in a CO2 incubator for 30 min. After this incubation, the compounds were removed, the peptide was added to the AP side, and HBSS buffer was added to the BL side for 2 h.

P-glycoprotein = target: T3, P-glycoprotein (Homo sapiens, UniProt P08183); assay: Peptide efflux: verapamil pre-incubation; assay type: in vitro ADME; settings: 0.1 mM verapamil, AP-BL, 2 h, vs blank
T3 construct: Multidrug resistance protein (MRP) and P-glycoprotein in Caco-2 cells are energy-dependent efflux transporters; endogenous in cells; host or cells: Caco-2
T3 sequence (P08183 whole entry): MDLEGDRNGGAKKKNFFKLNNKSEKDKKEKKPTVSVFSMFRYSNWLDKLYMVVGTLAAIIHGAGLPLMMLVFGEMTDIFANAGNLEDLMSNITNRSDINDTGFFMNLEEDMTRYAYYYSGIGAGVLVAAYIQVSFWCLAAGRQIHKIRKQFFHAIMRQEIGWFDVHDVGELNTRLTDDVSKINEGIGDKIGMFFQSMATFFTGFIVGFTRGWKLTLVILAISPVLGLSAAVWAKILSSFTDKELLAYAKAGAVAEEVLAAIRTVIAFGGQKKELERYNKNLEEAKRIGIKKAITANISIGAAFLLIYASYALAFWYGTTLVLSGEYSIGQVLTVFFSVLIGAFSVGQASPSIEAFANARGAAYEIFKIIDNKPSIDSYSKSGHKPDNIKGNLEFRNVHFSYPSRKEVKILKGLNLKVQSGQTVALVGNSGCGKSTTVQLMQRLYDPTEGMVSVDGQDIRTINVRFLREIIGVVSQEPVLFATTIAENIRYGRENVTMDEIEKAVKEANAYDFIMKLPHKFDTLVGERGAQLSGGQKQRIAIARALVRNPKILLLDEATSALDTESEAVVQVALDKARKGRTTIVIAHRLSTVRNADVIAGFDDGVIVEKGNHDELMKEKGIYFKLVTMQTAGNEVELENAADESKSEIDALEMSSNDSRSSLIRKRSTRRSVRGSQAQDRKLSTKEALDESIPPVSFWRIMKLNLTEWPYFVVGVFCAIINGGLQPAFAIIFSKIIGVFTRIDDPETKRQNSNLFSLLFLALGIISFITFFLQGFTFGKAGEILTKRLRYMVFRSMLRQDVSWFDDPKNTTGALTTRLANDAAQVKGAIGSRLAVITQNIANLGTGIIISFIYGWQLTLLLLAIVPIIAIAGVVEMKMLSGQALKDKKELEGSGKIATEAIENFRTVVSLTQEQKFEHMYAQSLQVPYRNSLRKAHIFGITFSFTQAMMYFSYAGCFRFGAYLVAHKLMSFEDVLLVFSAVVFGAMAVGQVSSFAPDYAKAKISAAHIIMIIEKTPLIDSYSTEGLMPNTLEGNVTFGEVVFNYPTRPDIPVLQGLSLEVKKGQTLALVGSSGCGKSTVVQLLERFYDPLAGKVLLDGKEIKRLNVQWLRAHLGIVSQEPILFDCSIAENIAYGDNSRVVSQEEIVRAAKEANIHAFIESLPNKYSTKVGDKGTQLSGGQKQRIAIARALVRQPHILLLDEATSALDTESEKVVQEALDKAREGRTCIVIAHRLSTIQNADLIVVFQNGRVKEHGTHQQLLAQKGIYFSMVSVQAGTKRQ
Experimental: as §2

Caco-2 cell monolayer [3] = assay: Peptide efflux: sodium azide pre-incubation (ATP production); assay type: in vitro ADME, human; settings: 10 mM sodium azide, AP-BL, 2 h, vs blank
Experimental: as §2

Caco-2 cell monolayer [4] = assay: Transport assay on Caco-2 cell monolayer (Transwell, RP-HPLC quantification)
Experimental: (§3) Reverse phase high-performance liquid chromatography (RP-HPLC) was used to analyze the composition of peptides passed through the Caco-2 cell membrane. The elution parameters were as follows: the mobile phase B was ultra-pure water containing 0.1% Trifluoroacetic acid (TFA), and mobile phase A contained acetonitrile supplemented with 0.1% TFA. Adopting a gradient elution method, in detail, at 0.01 min, mobile phase A was 5%; at 25 min, mobile phase A was 70%. The absorbance of RP-HPLC was detected at 220 nm. The peak yields of the five electroactive peptides at the concentrations of 0.5 mM, 0.2 mM, 0.1 mM, 0.05 mM, and 0.025 mM were detected. The concentration was set as the abscissa and the peak area was set as the ordinate to draw the standard curves of the different peptide segments.
(§4) Caco-2 cells were maintained in an incubator at 37 °C, with 5% CO2 and relative humidity of 90% until the number of cells accounted for 80–90% of confluency [19]. After that, the medium was added to obtain a cellular suspension with 4 × 10^5 cells/mL, which was seeded on a 12-well Transwell plate added to the AP side of the 0.5 mL cell suspension, and the Basal lateral (BL) side by adding 1.5 mL of cell culture medium after one day after the exchange, Then, the fluid was changed every other day for 6 days, and the fluid was changed every day until the culture was completed. […] The main detection indicators were: (1) cell morphology observation; (2) the cell membrane compactness using fluorescent yellow test; (3) the detection of single-cell membrane resistance [20]; (4) alkaline phosphatase activities at the top and the basal side of the cell membrane were detected respectively to preliminarily determine the polarity of it.
(§5) The Papp formula of fluorescence is as follows:(2) Papp=dQ/dt/A×C0 where: C0—Initial concentration of fluorescent yellow (mg/mL); A—Membrane surface area (cm^2); dQ/dt—Transport of fluorescent yellow per unit time; Papp—Apparent permeability coefficient.

Caco-2 cell monolayer [5] = assay: Integrity of peptides after passing the Caco-2 monolayer (RP-HPLC, LC-MS/MS); assay type: in vitro ADME, human; settings: for integrity of the peptide after passing through the Caco-2 cell membrane: RP-HPLC and LC/MS of BL-side liquid; for Concentration (ppm): peptide and fragments found by LC-MS in the liquid that passed the membrane, parents RYPLGYL, KHPIK, FFSDK
in vitro = settings: human, Caco-2, pH 7.4
Experimental: as §3, §4, §5

Caco-2 cell monolayer [6] = system: Caco-2 cell monolayer
Experimental: as §3, §4, §5

Row | Compound | main transport mechanism in intestinal epithelial cells (Caco-2 cell monolayer [2]) | integrity of the peptide after passing through the Caco-2 cell membrane (Caco-2 cell monolayer [5]) | Concentration (ppm) (Caco-2 cell monolayer [5]) | Papp A→B at 2 h, 5 mM (in vitro) [nm/s] | other results
1 | N[C@@H](Cc1ccc(O)cc1)C(=O)NCC(=O)NCC(=O)O [YGG, Tyr-Gly-Gly] (H-Tyr-Gly-Gly-OH; N-terminus and C-terminus assumed) | – | – | – | – | effect of Gly-Pro on transport to the BL side [1]: no significant differences; main transport mechanism in intestinal epithelial cells (Caco-2 cell monolayer [2]; Caco-2 monolayer): bypass diffusion; effect of MK-571 sodium salt on transmembrane transport (MRP2): no significant differences; effect of verapamil on transmembrane transport (P-glycoprotein): significantly promote; effect of sodium azide on concentration on the BL side (Caco-2 cell monolayer [3]): slightly higher
2 | NNC(=O)NN1C(=O)c2cc(S(=O)(=O)[O-])cc3c(N)c(S(=O)(=O)[O-])cc(c23)C1=O.[Li+].[Li+] [fluorescence yellow] | – | – | – | – | Papp of fluorescence yellow (Caco-2 cell monolayer [4]; Caco-2 monolayer density check): 6.07 nm/s; increase of transmittance (Caco-2 cell monolayer [4]; experimental group (Caco-2 monolayer), from 0.5 h to 2.5 h): 1.6%
3 | FFSDK [FFSDK, Phe-Phe-Ser-Asp-Lys] | bypass diffusion | Most of the KHPIK and FFSDK were hydrolyzed into KHP and FFS | 2.59 | 4.91 | –
4 | KHPIK [KHPIK, Lys-His-Pro-Ile- Lys] | bypass diffusion | Most of the KHPIK and FFSDK were hydrolyzed into KHP and FFS | 2.59 | 3.22 | amount across the membrane versus time (Caco-2 cell monolayer [6]; Caco-2): increased slowly; amount transported versus time (Caco-2 cell monolayer [6]; Caco-2): increased rapidly; transport quantity BL-AP side compared with AP-BL side (Caco-2 cell monolayer [6]; Caco-2): significantly lower; transmembrane transport capacity on the BL side (Caco-2 cell monolayer [6]; Caco-2, pH 6): 23.14 µM; transmembrane transport capacity on the BL side (Caco-2 cell monolayer [6]; Caco-2, pH 7): greater than 30.01 μM; transmembrane transport capacity on the BL side (Caco-2 cell monolayer [6]; Caco-2, pH 7.4): 44.35 µM
5 | KHPIKH [KHPIKH, Lys-His-Pro-Ile-Lys-His] | bypass diffusion | – | – | 2.6 | –
6 | RYPLGYL [RYPLGYL, Arg-Tyr-Pro-Leu-Gly-Tyr-Leu] | bypass diffusion | resistant to the enzymatic hydrolysis of intestinal epithelial cells | 10.74 | 1.61 | –
